# Reference: US20040198809A1 (priority 2001, published 2004)
# Assay: pharmacological and clinical studies (summary statements)
# Type: in vivo
# Conditions: presence of R-citalopram
# Description: This may be shown in functional in-vivo pharmacological models and studies of 5-HT-reuptake effect and or in behaviour models, for example depression models.
structure (smiles),measurement,value
CN(C)CCC[C@]1(c2ccc(F)cc2)OCc2cc(C#N)ccc21 [R-citalopram],impact on the effect of escitalopram,negative impact on the effect of escitalopram
